For assay [1], the target named is T1, Phospho-EGFR (Tyr1068) in H1975 cells (Homo sapiens, UniProt P00533, L858R/T790M).
T1 construct: host or cells: H1975
The assay is described as follows: HTRF pEGFR/total EGFR in H1975 cells. Format: cell-based. The following applies: ratio pEGFR/total EGFR, compound 3 hours. On the procedure:
(§1) H1975 cells (ATCC CRL-5908) were plated at 20,000 cells per well in 96 well plates and placed at 37° C. 5% CO2. Once adhered (after 24 h) cells were treated with compounds dissolved in DMSO at a final concentration of 0.1% DMSO in media. Compounds were diluted in media then added to cells for 3 hours in duplicate. Compound and media were removed from the cells, then 50 ul of HTRF lysis buffer is added (lysis buffer was diluted from 4× stock to 1× in DI water, with 1% blocking agent also added). Cells were lysed on a plate shaker (2000 rpm) for 30 minutes at room temperature. pEGFR expression was monitored using the Cisbio Phospho-EGFR (Tyri068) cellular kit (64EG1PEH). Total EGFR expression was monitored using the Cisbio Total EGFR cellular kit (64NG1PEH) as per manufacturer's instructions. Fluorescence emission was read at two different wavelengths (665 nm and 620 nm) on a PheraStar. Results were calculated as ratio of pEGFR/total EGFR and then percentage of 0 μM control.
For orientation: Time-resolved FRET reads energy transfer from a long-lived donor to a nearby acceptor.

In assay [2] the target is T2, Phospho-EGFR (Tyr1068) in H1975 C797S cells (CRISPR-edited EGFR C797S) (Homo sapiens, UniProt P00533, C797S/L858R/T790M).
T2 construct: host or cells: H1975 C797S (CRISPR-edited)
In words: HTRF pEGFR/total EGFR in H1975 C797S cells. The following applies: ratio pEGFR/total EGFR, compound 3 hours. Format: cell-based. Here is the method:
as §1, with “[…]. Once” for “H1975 cells (ATCC CRL-5908) were plated at 20,000 cells per well in 96 well plates and placed at 37° C. 5% CO2. Once”, “buffer was” for “buffer is”, “Phospho-EGFR (Tyr1068)” for “Phospho-EGFR (Tyri068)”

Assay [3] deals with T3, Phospho-EGFR (Tyr1068) in A431 cells (Homo sapiens, UniProt P00533).
T3 construct: endogenous in cells; host or cells: A431
In words: HTRF pEGFR/total EGFR in A431 cells with EGF stimulation. The following applies: ratio pEGFR/total EGFR, compound 2.5 hours then 100 ng/ml EGF 30 mins. Format: cell-based. Here is the method: Cells were plated at 20,000 cells per well in 96 well plates and placed at 37° C. 5% CO2. Once adhered (after 24 h) cells were treated with compounds dissolved in DMSO at a final concentration of 0.1% DMSO in media. Compounds were diluted in media then added to cells for 2.5 hours in duplicate, 100 ng/ml EGF (ThermoFisher, PHG0311) was added to all compound treated cells as well as a control for 30 mins. Compound and media were removed from the cells, then 50 ul of HTRF lysis buffer was added (lysis buffer was diluted from 4× stock to 1× in DI water, with 1% blocking agent also added). Cells were lysed on a plate shaker (2000 rpm) for 30 minutes at room temperature. pEGFR expression was monitored using the Cisbio Phospho-EGFR (Tyr1068) cellular kit (64EG1PEH). Total EGFR expression was monitored using the Cisbio Total EGFR cellular kit (64NG1PEH) as per manufacturer's instructions. Fluorescence emission was read at two different wavelengths (665 nm and 620 nm) on a PheraStar. Results were calculated as ratio of pEGFR/total EGFR and then percentage of 0 μM control.

For assay [4], the target named is CtermHisTag-mEGFR Wild type (Homo sapiens, UniProt P00533). The assay is described as follows: biochemical.

The values below come from patent US20260137703A1, “2-AMINO-PYRIDO[2,3-D]PYRIMIDIN-7(8H)-ONE AND 7-AMINO-1-PYRIMIDO[4,5-D]PYRIMIDIN-2(1 H)-ONE DERIVATIVES AS EGFR INHIBITORS FOR THE TREATMENT OF CANCER” (Cancer Research Technology Limited, priority 2022, published 2026).

SMILES strings stand for the structures.

T1 sequence (P00533 25-1210 T790M/L858R): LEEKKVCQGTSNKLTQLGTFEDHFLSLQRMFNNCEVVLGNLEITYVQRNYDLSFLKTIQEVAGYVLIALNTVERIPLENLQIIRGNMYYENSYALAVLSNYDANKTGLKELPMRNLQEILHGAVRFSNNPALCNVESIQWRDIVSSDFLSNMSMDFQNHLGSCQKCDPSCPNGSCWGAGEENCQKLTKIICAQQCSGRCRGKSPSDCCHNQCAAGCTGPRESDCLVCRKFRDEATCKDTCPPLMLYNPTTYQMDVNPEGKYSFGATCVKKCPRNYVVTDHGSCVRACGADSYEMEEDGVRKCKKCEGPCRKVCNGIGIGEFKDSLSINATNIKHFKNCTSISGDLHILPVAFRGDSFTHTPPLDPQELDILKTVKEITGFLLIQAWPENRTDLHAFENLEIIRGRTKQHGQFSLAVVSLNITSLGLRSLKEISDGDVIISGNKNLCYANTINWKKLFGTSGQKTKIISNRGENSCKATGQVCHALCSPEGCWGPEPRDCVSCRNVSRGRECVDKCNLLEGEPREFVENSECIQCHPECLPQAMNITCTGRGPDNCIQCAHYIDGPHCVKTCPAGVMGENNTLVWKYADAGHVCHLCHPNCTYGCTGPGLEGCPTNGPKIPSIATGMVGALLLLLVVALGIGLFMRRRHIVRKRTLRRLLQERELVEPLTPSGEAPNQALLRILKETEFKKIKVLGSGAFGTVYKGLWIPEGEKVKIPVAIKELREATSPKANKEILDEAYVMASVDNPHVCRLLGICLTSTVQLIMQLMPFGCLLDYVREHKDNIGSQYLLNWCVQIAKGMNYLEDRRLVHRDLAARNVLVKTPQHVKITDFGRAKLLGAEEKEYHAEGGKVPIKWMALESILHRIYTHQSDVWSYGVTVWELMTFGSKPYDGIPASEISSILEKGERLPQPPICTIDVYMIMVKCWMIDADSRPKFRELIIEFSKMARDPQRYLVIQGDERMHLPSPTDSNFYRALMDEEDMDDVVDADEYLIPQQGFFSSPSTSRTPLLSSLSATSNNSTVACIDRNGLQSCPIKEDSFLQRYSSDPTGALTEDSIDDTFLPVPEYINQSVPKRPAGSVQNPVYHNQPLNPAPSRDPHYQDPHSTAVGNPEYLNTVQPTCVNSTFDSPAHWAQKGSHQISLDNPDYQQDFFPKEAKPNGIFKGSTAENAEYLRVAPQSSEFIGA
T2 sequence (P00533 25-1210 T790M/C797S/L858R): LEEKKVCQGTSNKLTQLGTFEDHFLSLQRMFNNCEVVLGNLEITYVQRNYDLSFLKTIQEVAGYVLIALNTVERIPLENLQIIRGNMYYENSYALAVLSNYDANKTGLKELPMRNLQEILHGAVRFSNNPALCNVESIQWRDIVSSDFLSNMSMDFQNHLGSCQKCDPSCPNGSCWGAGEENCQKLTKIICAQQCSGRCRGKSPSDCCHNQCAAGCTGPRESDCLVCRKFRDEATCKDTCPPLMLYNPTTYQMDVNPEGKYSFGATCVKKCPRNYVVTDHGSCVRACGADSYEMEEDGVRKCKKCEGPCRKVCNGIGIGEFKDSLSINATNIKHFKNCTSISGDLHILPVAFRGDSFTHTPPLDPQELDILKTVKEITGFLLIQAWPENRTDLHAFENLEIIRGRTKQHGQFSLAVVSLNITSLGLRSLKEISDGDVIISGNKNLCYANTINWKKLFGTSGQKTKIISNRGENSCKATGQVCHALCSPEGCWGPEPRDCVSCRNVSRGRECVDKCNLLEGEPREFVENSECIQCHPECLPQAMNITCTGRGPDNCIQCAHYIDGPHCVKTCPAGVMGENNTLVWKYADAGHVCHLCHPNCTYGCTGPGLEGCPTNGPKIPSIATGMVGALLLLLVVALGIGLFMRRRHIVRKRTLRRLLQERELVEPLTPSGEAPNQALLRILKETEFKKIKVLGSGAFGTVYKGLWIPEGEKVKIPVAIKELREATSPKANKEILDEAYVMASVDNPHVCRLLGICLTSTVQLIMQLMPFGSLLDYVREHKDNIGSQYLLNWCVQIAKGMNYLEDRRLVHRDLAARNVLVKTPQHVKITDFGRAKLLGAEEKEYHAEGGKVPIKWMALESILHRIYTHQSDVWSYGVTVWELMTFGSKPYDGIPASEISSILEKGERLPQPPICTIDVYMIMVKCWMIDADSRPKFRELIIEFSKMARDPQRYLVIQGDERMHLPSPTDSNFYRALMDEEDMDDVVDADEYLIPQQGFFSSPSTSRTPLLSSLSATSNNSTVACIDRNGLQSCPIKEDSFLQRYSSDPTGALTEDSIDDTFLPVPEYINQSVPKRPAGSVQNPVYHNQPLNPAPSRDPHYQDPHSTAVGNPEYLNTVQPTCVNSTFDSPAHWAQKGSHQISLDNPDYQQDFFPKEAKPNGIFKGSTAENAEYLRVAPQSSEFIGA
T3 sequence (P00533 25-1210): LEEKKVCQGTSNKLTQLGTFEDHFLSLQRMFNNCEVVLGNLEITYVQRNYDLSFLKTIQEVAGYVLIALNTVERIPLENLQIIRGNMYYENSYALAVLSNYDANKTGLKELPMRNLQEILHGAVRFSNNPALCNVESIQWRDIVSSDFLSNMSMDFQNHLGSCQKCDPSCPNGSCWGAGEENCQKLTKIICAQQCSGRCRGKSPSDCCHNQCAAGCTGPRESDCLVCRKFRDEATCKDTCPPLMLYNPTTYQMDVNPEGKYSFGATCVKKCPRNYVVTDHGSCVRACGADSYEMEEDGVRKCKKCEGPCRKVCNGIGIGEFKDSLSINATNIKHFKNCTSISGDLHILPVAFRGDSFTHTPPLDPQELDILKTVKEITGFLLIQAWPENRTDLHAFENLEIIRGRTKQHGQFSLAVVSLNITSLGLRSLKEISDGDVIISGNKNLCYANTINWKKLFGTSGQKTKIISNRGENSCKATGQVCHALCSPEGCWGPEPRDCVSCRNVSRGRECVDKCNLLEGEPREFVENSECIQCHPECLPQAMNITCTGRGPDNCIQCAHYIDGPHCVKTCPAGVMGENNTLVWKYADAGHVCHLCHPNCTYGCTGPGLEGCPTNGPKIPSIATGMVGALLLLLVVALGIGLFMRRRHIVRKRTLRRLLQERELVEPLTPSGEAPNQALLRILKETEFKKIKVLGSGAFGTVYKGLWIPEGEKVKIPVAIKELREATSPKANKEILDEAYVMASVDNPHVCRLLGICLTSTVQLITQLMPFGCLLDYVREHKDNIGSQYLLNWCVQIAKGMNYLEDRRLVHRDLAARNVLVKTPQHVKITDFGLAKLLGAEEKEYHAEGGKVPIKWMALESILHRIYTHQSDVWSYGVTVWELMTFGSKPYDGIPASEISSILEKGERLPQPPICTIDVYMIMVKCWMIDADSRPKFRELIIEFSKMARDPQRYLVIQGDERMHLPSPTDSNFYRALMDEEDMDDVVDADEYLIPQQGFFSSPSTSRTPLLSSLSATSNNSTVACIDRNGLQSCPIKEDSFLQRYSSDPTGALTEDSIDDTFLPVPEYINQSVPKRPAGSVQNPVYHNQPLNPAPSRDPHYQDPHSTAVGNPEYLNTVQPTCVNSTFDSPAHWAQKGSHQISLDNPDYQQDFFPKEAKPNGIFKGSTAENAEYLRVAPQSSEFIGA
Sequence of CtermHisTag-mEGFR Wild type (P00533 whole entry): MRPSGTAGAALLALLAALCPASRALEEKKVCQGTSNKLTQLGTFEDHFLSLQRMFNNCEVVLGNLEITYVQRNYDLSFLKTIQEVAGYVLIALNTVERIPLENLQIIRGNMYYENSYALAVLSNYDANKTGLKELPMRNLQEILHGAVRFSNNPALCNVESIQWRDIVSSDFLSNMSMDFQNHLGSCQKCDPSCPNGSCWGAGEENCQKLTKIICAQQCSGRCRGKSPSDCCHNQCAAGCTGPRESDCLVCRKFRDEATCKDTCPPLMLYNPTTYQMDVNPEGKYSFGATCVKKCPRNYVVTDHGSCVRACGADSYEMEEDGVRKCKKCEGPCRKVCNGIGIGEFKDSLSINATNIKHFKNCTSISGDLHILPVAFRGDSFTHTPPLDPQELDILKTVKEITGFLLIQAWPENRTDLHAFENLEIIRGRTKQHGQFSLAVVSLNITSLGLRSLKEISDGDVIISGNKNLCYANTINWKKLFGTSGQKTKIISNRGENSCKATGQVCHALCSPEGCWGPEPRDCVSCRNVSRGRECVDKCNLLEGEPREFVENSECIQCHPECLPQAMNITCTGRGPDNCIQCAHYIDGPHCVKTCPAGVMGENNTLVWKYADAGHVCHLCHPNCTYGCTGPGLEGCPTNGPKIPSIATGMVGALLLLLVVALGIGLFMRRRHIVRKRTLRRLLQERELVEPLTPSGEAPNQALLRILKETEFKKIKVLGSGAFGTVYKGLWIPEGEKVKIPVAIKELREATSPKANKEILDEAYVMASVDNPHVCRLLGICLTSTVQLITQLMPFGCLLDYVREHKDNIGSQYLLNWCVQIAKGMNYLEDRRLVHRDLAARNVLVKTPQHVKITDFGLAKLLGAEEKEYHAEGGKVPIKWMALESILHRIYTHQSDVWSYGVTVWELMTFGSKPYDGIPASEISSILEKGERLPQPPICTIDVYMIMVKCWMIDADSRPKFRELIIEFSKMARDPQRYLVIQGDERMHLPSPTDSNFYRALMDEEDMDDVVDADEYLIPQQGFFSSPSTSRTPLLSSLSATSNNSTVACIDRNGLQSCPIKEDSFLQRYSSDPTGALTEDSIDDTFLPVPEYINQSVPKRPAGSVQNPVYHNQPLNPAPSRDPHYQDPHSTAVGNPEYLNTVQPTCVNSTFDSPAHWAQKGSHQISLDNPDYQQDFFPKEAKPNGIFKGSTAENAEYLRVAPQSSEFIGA

By IC50 is commonly meant the concentration that inhibits the measured activity by half. With `C#Cc1cc(=O)n(-c2ccccc2)c2cc(Nc3ccccc3OC)ncc12` [Example 3, 4-Ethynyl-7-[(2-methoxyphenyl)amino]-1-phenyl-1,6-naphthyridin-2-one], the IC50 in assay [1] was over 3 µM; in assay [2], over 3 µM; in assay [3], over 3 µM; in assay [4], over 10 µM.
Take `C#Cc1cc(=O)n(-c2ccccc2)c2nc(Nc3ccc(N4CCOCC4)cc3)ncc12` [Example 6, 5-Ethynyl-2-((4-morpholinophenyl)amino)-8-phenylpyrido[2,3-d]pyrimidin-7(8H)-one]: the half-maximal inhibitory concentration (IC50) in assay [1] is under 0.5 µM; in assay [2], under 0.5 µM; in assay [3] it was 1 to 3 µM; in assay [4], under 1 µM.
Turning to `C#Cc1cc(=O)n(-c2ccccc2)c2nc(Nc3ccc(N(C)C(=O)CN(C)C)cc3OC)ncc12` [Example 7, 2-(Dimethylamino)-N-(4-((5-ethynyl-7-oxo-8-phenyl-7,8-dihydropyrido[2,3-d]pyrimidin-2-yl)amino)-3-methoxyphenyl)-N-methylacetamide], the IC50 is 1 to 3 µM in assay [1], 1 to 3 µM in assay [2], over 3 µM in assay [3] and 1 to 10 µM in assay [4].
In the case of `C#Cc1cc(=O)n(-c2ccccc2)c2nc(Nc3ccc(N(C)CCCN(C)C)cc3)ncc12` [Example 9, 2-((4-((3-(Dimethylamino)propyl)(methyl)amino)phenyl)amino)-5-ethynyl-8-phenylpyrido[2,3-d]pyrimidin-7(8H)-one], the IC50 in assay [1] is under 0.5 µM; in assay [2] it was under 0.5 µM; in assay [3], over 3 µM; in assay [4], under 1 µM.
In the case of `C#Cc1cc(=O)n(-c2ccccc2)c2nc(NC3CCN(S(C)(=O)=O)CC3)ncc12` [Example 10, 5-Ethynyl-2-((1-(methylsulfonyl)piperidin-4-yl)amino)-8-phenylpyrido[2,3-d]pyrimidin-7(8H)-one], the IC50 in assay [1] was over 3 µM; in assay [2] it was over 3 µM; in assay [3] it was over 3 µM; in assay [4] it was under 1 µM.
On to `C#Cc1cc(=O)n(-c2ccccc2)c2nc(Nc3ccc(N4CCN(C)CC4)c(C)c3)ncc12` [Example 12, 5-Ethynyl-2-{[3-methyl-4-(4-methylpiperazin-1-yl)phenyl]amino}-8-phenylpyrido[2,3-d]pyrimidin-7-one], for which the IC50 is under 0.5 µM in assay [1], under 0.5 µM in assay [2], over 3 µM in assay [3] and under 1 µM in assay [4].
As to `C#Cc1cc(=O)n(-c2ccccc2)c2nc(Nc3ccc(N4CCNCC4)cc3)ncc12` [Example 14, 5-Ethynyl-8-phenyl-2-{[4-(piperazin-1-yl)phenyl]amino}pyrido[2,3-d]pyrimidin-7-one], the IC50 in assay [1] was under 0.5 µM; in assay [2], under 0.5 µM; in assay [3], over 3 µM; in assay [4] it was under 1 µM.
`C#Cc1c(-c2c(Cl)cccc2Cl)c(=O)n(C)c2nc(Nc3cccc(CO)c3)ncc12` [Example 125, 6-(2,6-dichlorophenyl)-5-ethynyl-2-{[3-(hydroxymethyl)phenyl]amino}-8-methylpyrido[2,3-d]pyrimidin-7-one]: the IC50 in assay [1], in assay [2] and in assay [3] was over 3 µM throughout.
In assay [4], `C=Cc1c(-c2ccccc2)c(=O)n(C)c2nc(Nc3ccccc3OC)ncc12` [Example 162, 5-ethenyl-2-[(2-methoxyphenyl)amino]-8-methyl-6-phenylpyrido[2,3-d]pyrimidin-7-one] showed an IC50 of over 10 µM.
Same read-out and setting: as for `C=Cc1c(-c2c(Cl)cccc2Cl)c(=O)n(C)c2nc(Nc3ccccc3OC)ncc12` [Example 163, 6-(2,6-dichlorophenyl)-5-ethenyl-2-[(2-methoxyphenyl)amino]-8-methylpyrido[2,3-]pyrimidin-7-one], the figure is over 10 µM.
In assay [4], `C=Cc1c(-c2c(Cl)cccc2Cl)c(=O)n(C)c2nc(Nc3cccc(CO)c3)ncc12` [Example 164, 6-(2,6-dichlorophenyl)-5-ethenyl-2-{[3-(hydroxymethyl)phenyl]amino}-8-methylpyrido[2,3-d]pyrimidin-7-one] yielded an IC50 of over 10 µM.
Still for that read-out and setting: with `C=Cc1c(-c2ccccc2Cl)c(=O)n(C)c2nc(Nc3ccc(N(C)CCN(C)C)cc3)ncc12` [Example 165, 6-(2-chlorophenyl)-2-[(4-{[2-(dimethylamino)ethyl](methyl)amino}phenyl)amino]-5-ethenyl-8-methylpyrido[2,3-d]pyrimidin-7-one] the figure was over 10 µM; with `C=Cc1c(Cc2ccccc2)c(=O)n(C)c2nc(Nc3ccc(N(C)CCN(C)C)cc3)ncc12` [Example 166, 6-benzyl-2-[(4-{[2-(dimethylamino)ethyl](methyl)amino}phenyl)amino]-5-ethenyl-8-methylpyrido[2,3-d]pyrimidin-7-one], over 10 µM.
`C=Cc1c(-c2c(Cl)cccc2Cl)c(=O)n(C)c2nc(Nc3ccc(N(C)CCN(C)C)cc3)ncc12` [Example 167, 6-(2,6-dichlorophenyl)-2-[(4-{[2-(dimethylamino)ethyl](methyl)amino}phenyl)amino]-5-ethenyl-8-methylpyrido[2,3-d]pyrimidin-7-one] had an IC50 in assay [4] of over 10 µM.
`C=Cc1c(-c2ccccc2Cl)c(=O)n(C)c2nc(Nc3cccc(OC)c3)ncc12` [Example 168, 6-(2-chlorophenyl)-5-ethenyl-2-[(3-methoxyphenyl)amino]-8-methylpyrido[2,3-d]pyrimidin-7-one]: in assay [4], the IC50 is over 10 µM.
On the same count and under the same terms, as for `C=Cc1c(-c2ccccc2Cl)c(=O)n(C)c2nc(Nc3cccc(CO)c3)ncc12` [Example 169, 6-(2-chlorophenyl)-5-ethenyl-2-{[3-(hydroxymethyl)phenyl]amino}-8-methylpyrido[2,3-]pyrimidin-7-one], the figure is 1 to 10 µM; as for `C=Cc1c(-c2ccccc2Cl)c(=O)n(C)c2nc(N)ncc12` [Example 173, 2-amino-6-(2-chlorophenyl)-5-ethenyl-8-methylpyrido[2,3-d]pyrimidin-7-one], over 10 µM; as for `C=Cc1c(-c2ccccc2Cl)c(=O)n(C)c2nc(NCCCCN3CCN(C)CC3)ncc12` [Example 174, 6-(2-chlorophenyl)-8-methyl-2-((4-(4-methylpiperazin-1-yl)butyl)amino)-5-vinylpyrido[2,3-d]pyrimidin-7(8H)-one], over 10 µM.
Regarding `C#Cc1cc(=O)n(C2CCCC2)c2nc(Nc3ccccc3N3CCCC(CS(C)(=O)=O)C3)ncc12` (centres unmarked) [Example 202, 8-Cyclopentyl-5-ethynyl-2-({2-[3-(methanesulfonylmethyl)piperidin-1-yl]phenyl}amino)pyrido[2,3-d]pyrimidin-7-one], the IC50 was over 3 µM in assay [1], over 3 µM in assay [2] and over 10 µM in assay [4].
`C#Cc1cc(=O)n(C2CCCC2)c2nc(Nc3cccc(N(C)[C@H]4CC[C@@H](CS(C)(=O)=O)CC4)c3)ncc12` [Example 204]: the values for the IC50 in assay [1], in assay [2] and in assay [4] were over 3 µM, over 3 µM and under 1 µM, respectively.
As for `C#Cc1cc(=O)n2c3nc(ncc13)Nc1ccc(N3CCN(C)CC3)c(c1)OC[C@@H]1CC[C@@H](C1)C2` [Example 233, (5^1S,5^3R)-3^5-Ethynyl-1^4-(4-methylpiperazin-1-yl)-3^7,3^8-dihydro-7-oxa-2-aza-3(2,8)-pyrido[2,3-d]pyrimidina-1(1,3)-benzena-5(1,3)-cyclopentanacycloheptaphan-3^7-one], the results for the IC50 in assay [1], in assay [2] and in assay [4] were under 0.5 µM, under 0.5 µM and under 1 µM, respectively.
